Source: ChEMBL document CHEMBL1201862, “PubChem BioAssay data set” (2004)
Calls of active or inactive are those of the source.

Experiments:
[1] = viability of PTEN-deleted HCT116 cells – cell-based, HCT116 PTEN knockout, dose response (AID 1047); assay type: functional;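 note: HCT116 colon tumor cells with PTEN knocked out; cells exposed to compound for 60 hours before readout; potency for loss of cell viability measured by luminescence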
[2] = viability of HCT116 lacking mutant beta-catenin – cell-based, human colon tumor, dose response (AID 1045); assay type: functional;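 note: HCT116 colon tumor cells with beta catenin knocked out; cells exposed to compound for 60 hours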
[3] = biological target: T1, Corticotropin-releasing factor receptor 2/Corticotropin-releasing factor-binding protein (Homo sapiens, UniProt P24387+Q13324); assay: Dose Response confirmation of uHTS hits for small molecule antagonists of the CRF-binding protein and CRF-R2 receptor complex.; assay type: functional; conditions: read-out: IC50_Mean
T1 sequence (Q13324 whole entry): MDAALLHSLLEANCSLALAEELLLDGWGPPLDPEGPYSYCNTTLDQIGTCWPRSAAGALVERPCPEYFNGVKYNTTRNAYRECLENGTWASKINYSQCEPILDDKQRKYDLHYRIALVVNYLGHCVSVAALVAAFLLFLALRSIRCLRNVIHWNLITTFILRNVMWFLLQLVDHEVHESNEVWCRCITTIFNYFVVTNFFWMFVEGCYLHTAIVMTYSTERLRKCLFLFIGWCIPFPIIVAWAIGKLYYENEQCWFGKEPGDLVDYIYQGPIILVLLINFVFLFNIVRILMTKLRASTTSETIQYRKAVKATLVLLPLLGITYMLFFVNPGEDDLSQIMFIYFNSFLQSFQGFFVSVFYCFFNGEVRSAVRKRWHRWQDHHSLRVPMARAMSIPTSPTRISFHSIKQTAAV
T1 sequence (P24387 whole entry): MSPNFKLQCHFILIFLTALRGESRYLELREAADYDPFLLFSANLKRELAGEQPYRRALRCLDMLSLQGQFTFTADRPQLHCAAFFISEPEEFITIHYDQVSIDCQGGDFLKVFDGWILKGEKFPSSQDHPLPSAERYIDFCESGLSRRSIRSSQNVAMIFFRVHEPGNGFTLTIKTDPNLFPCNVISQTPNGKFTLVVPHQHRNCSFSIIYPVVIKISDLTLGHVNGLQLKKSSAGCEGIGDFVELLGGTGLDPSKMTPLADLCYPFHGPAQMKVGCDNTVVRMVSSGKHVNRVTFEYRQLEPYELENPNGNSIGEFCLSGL

[4] = biological target: T1, Corticotropin-releasing factor receptor 2/Corticotropin-releasing factor-binding protein; assay: activators of CRF receptor 2 with binding protein – uHTS hits, confirmation (AID 602473); assay type: functional; conditions: read-out: EC50_Mean
[5] = NIH-3T3 fibroblast cytotoxicity, dose response, cytotoxicity control, cell-based, fluorescence, Alamar Blue, secondary assay (AID 2327); assay type: functional;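 note: NIH-3T3 mouse fibroblasts cultured with fluconazole at 8 µg/mL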
[6] = fluconazole-exposed Candida albicans growth modulators – fluorescence, retest, confirmation (AID 2467); assay type: functional, cell-based
[7] = Trypanosoma cruzi growth suppression in host cells – NIH3T3 host cells, beta-gal luminescence, confirmation (AID 2044); assay type: functional, cell-based;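 note: intracellular parasites grown in NIH/3T3 mouse fibroblasts as host cells; luminescent beta-galactosidase reporter signal from transgenic T. cruzi replicating inside host cells; inhibitors lower the luminescence signal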
[8] = NIH3T3 cell viability loss – ATP luminescence, mouse fibroblasts, counter-screen, dose response (AID 2010); assay type: functional, cell-based;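 note: cells exposed to compound for about 90 hours before reading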
[9] = reduction of Shn3 3'UTR-driven luciferase in osteoblasts – cell-based, Clone20 osteoblasts, firefly luciferase, cherry-picked, dose response (AID 624132); assay type: functional;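 note: firefly luciferase luminescence from reporter carrying the Shn3 3'UTR in osteoblasts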
[10] = loss of viability in HepG2 cells – cell-based, CellTiter-Glo, cherry-picked, cytotoxicity control for Shn3 inhibitor project, dose response (AID 624134); assay type: functional
[11] = non-specific 3'UTR reporter inhibition in Clone20-Shn3RL – cell-based, Renilla luciferase, cherry-picked, counter-screen for Shn3 inhibitor project, dose response (AID 624133); assay type: functional
[12] = system: INS1; assay: INS-1E survival protection against cytokine death – cell-based, luminescence, retest, dose response (AID 449756); assay type: functional; conditions: Rattus norvegicus;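 note: cell death triggered by IL-1 beta plus TNF-alpha plus IFN-gamma mixture; protective hits raise ATP signal compared with cytokine alone wells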
[13] = biological target: T2, Rac GTPase-activating protein 1 (Homo sapiens, UniProt Q9H0H5); assay: blockers of MgcRacGAP-driven Rac1 GTP hydrolysis – biochemical, ADP Hunter fluorescence, primary and confirmatory, confirmation (AID 624330); assay type: functional
T2 sequence (Q9H0H5 whole entry): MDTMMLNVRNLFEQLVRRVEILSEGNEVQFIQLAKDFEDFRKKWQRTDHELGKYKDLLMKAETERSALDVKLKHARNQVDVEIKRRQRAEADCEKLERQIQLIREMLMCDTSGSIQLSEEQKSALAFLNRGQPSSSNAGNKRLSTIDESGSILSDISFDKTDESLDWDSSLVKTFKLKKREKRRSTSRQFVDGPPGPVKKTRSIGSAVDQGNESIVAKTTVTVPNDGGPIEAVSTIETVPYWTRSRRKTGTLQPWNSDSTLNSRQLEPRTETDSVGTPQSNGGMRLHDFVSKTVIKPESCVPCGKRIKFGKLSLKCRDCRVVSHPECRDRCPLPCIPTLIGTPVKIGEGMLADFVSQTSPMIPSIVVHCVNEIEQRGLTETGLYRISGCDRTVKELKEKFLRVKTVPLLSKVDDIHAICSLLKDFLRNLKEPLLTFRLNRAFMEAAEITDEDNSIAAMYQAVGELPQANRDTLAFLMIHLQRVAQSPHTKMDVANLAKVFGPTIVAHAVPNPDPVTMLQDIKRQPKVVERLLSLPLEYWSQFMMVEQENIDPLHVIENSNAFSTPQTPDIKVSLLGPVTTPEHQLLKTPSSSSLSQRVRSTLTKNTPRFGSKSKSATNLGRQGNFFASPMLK

[14] = system: Streptococcus sp. 'group A'; assay: Streptococcus pyogenes SK(-)GAS viability under kanamycin – luminescence, BacTiterGlo, confirmation, counter-screen for streptokinase expression inhibitor project, dose response (AID 1900); assay type: functional, organism-based
[15] = system: Streptococcus; assay: GAS UMAA2166 growth inhibition – luminescence, BacTiterGlo, counter-screen for streptokinase expression inhibitor project, dose response (AID 1915); assay type: functional, organism-based;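 note: potency for reduction of bacterial viability or growth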
[16] = luciferase reporter signal suppression in cells – H4 neuroglioma cells, luminescence, dose response (AID 1990); assay type: functional, cell-based
[17] = Luminescence Cell-Based Dose Response HTS to Identify Inhibitors of 5'UTR Stem-Loop Driven Prion Protein mRNA Translation in H4 Neuroglioblastoma Cells. [Related pubchem assays: 1827 (Project Summary), 1813 (Primary HTS)]; assay type: functional
[18] = alpha-synuclein stem-loop luciferase translation blockers – H4 neuroglioma cells, luminescence, confirmation (AID 1988); assay type: functional, cell-based
[19] = biological target: Cytochrome P450 2D6 (Homo sapiens, UniProt P10635);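 note: CYP2D6 member of a cytochrome P450 panel assay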
Sequence of Cytochrome P450 2D6 (P10635 whole entry): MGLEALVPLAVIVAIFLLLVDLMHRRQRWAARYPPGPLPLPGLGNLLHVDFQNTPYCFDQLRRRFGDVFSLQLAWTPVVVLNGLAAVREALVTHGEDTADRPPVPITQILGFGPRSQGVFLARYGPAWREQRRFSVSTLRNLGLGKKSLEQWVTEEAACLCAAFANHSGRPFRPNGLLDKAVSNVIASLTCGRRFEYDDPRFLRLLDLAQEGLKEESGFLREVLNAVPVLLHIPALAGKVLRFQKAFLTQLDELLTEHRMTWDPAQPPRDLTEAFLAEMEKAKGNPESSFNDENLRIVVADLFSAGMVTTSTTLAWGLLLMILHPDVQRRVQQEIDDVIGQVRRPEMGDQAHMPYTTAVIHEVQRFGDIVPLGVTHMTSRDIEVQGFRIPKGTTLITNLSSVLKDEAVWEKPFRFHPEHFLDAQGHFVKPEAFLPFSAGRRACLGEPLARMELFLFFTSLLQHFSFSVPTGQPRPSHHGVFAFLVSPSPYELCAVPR

SMILES: Cc1ccc2[nH]c(SCC(=O)Nc3cc([N+](=O)[O-])ccc3F)nc2c1
- EC50 [1]: 14 µM (active)
- EC50 [2]: 20.6 µM (active)

SMILES: CCN(C(=O)CSc1cc(C)c2ccc(OC)cc2n1)C1CCS(=O)(=O)C1 (stereo not drawn)
- IC50 [3]: > 47.1 µM (inactive)
- EC50 [4]: > 53 µM (inactive)

SMILES: Clc1ccc(OCCn2ccnc2)c2ccccc12
- EC50 [5]: > 150 µM (inactive)
- EC50 [6]: 3.78 µM (active)
- EC50 [7]: 3.91 µM (active)
- EC50 [8]: > 60 µM (not active)

SMILES: CC(C)CC(=O)NCc1ccc2[nH]c3c(c2c1)CCCC3
- EC50 [5]: > 160 µM (inactive)
- EC50 [6]: > 38 µM (not active)

SMILES: CCc1ccc(C(=O)NNc2ccc(F)cc2)cc1
- EC50 [5]: 12.2 µM (active)
- EC50 [6]: > 38 µM (not active)

SMILES: C/C(=C\c1ccccc1)CN1CCC(C(=O)N2CCCCC2)CC1
- IC50 [3]: > 47.1 µM (inactive)
- EC50 [4]: > 53 µM (inactive)

SMILES: Cc1onc(-c2ccccc2Cl)c1C(=O)N1CCC(Cc2ccccc2)CC1
- AC50 [9]: 2.29 µM (active)
- AC50 [10]: 46.3 µM (active)
- AC50 [11]: 4.54 µM (active)

SMILES: O=C(c1ccc(COc2c(F)c(F)cc(F)c2F)o1)N1CCN(c2ccc(Cl)cc2)CC1
- EC50 [1]: 21.5 µM (active)
- EC50 [2]: 11.7 µM (active)

SMILES: O=C(NNc1ccccc1)C(CCO)C(=O)NNc1ccccc1
- EC50 [5]: 19.6 µM (active)
- EC50 [6]: > 38 µM (not active)

SMILES: CCCC(=O)NC(=S)NNC(=O)c1ccc([N+](=O)[O-])cc1
- EC50 [5]: > 160 µM (inactive)
- EC50 [6]: 10.1 µM (active)

SMILES: COC(=O)c1ccc2c(=O)n(Cc3ccco3)c(SCC(=O)Nc3ccccc3Cl)nc2c1
- EC50 [1]: 37.5 µM (active)
- EC50 [2]: 44.3 µM (active)

SMILES: COc1ccc(OC)c(NC(=O)c2cc(-c3cc(Cl)ccc3O)[nH]n2)c1
- EC50 [1]: 36.7 µM (active)
- EC50 [2]: 39.2 µM (active)

SMILES: C=CCCc1ccc(C#N)c(SCc2c(C(=O)OCC)c3cc(OC(C)=O)c(Br)cc3n2C)n1
- AC50 [12]: 1.14 µM (active)
- AC50 [10]: 9.37 µM (active)
- AC50 [11]: 2.75 µM (active)

SMILES: COc1cc(/C=C/C(=O)OCC(=O)Nc2c(C)n(C)n(-c3ccccc3)c2=O)ccc1O
- IC50 [13]: 63.9 µM (active)

SMILES: c1ccc(CC2CCN(Cc3ccccn3)CC2)cc1
- IC50 [13]: 216 µM (active)

SMILES: Cc1cc(C)c(S(=O)(=O)Nc2nnc(C3CCCCC3)s2)c(C)c1
- EC50 [5]: > 160 µM (inactive)
- EC50 [6]: 1.93 µM (active)

SMILES: COc1cc(/C=C(/NC(=O)c2ccccc2)C(=O)Nc2ccc(O)cc2)c([N+](=O)[O-])cc1OC
- IC50 [13]: 55.7 µM (active)

SMILES: CCCNc1nc2c(c(=O)n(C)c(=O)n2C)n1Cc1cccc(C)c1
- AC50 [9]: 1.91 µM (active)
- AC50 [10]: > 70 µM (inactive)
- AC50 [11]: 8.85 µM (active)

SMILES: Cc1ccc(C(=O)Nc2nnc(-c3ccco3)o2)cc1C
- IC50 [3]: > 47.1 µM (inactive)
- EC50 [4]: > 53 µM (inactive)

SMILES: O=C(/C=C/c1ccco1)OCc1nnc(-c2ccc(Cl)cc2)o1
- IC50 [3]: > 47.1 µM (inactive)
- EC50 [4]: > 53 µM (inactive)

SMILES: O=C(O)c1ccc(Nc2cnc3ccccc3n2)cc1
- EC50 [5]: > 160 µM (inactive)
- EC50 [6]: > 38 µM (not active)

SMILES: O=C(Nc1ccc(F)cc1)c1nc[nH]c1C(=O)Nc1ccc([N+](=O)[O-])cc1
- EC50 [1]: 17.6 µM (active)
- EC50 [2]: 11.2 µM (active)

SMILES: CCc1ccc(OCC(=O)NC(N=C(S)Nc2ccc(C)cc2C)C(Cl)(Cl)Cl)cc1 (stereo not drawn)
- EC50 [14]: 3.3 µM (active)
- EC50 [1]: 30.8 µM (active)
- EC50 [2]: 41.1 µM (active)
- EC50 [15]: 8.13 µM (active)
- AC50 [12]: 7.48 µM (active)

SMILES: c1ccc(-n2nnnc2Oc2cccc3cccnc23)cc1
- EC50 [1]: 22.6 µM (active)
- EC50 [2]: 20.8 µM (active)

SMILES: CCN(CC)S(=O)(=O)c1cccc(NC(=O)CNc2cccc(S(=O)(=O)N3CCOCC3)c2)c1
- AC50 [9]: 0.865 µM (active)
- AC50 [10]: 1.08 µM (active)
- AC50 [11]: 2.77 µM (active)

SMILES: CCCOc1ccccc1C1CC(=O)Nc2cc3c(cc21)OCCO3 (stereo not drawn)
- AC50 [9]: 3.66 µM (active)
- AC50 [11]: 10.2 µM (active)

SMILES: O=C(O)c1ccccc1NS(=O)(=O)c1ccc2c(c1)OCCO2
- IC50 [3]: > 47.1 µM (inactive)
- EC50 [4]: > 53 µM (inactive)

SMILES: C=CCn1c(SCC(=O)c2[nH]c(C)c(C(=O)OC)c2C)nc2scc(-c3ccc(OC)c(OC)c3)c2c1=O
- EC50 [16]: 6.33 µM (active)
- EC50 [17]: 8.16 µM (active)
- EC50 [18]: 5.89 µM (active)
- AC50 [9]: 2.01 µM (active)
- AC50 [10]: 41.2 µM (active)
- AC50 [11]: 24.8 µM (active)

SMILES: CSc1nc(N)nc2c1ncn2CC(=O)N1CCN(Cc2c(C)cc(C)cc2C)CC1
- AC50 [12]: 1.98 µM (active)
- AC50 [9]: 0.526 µM (active)
- AC50 [10]: 33.6 µM (active)
- AC50 [11]: 2.02 µM (active)

SMILES: Cc1ccccc1OCCn1cc(C(=S)N2CCCC2)c2ccccc21
- AC50 [9]: 24.3 µM (active)
- AC50 [10]: > 70 µM (inactive)
- AC50 [11]: 20.9 µM (active)

SMILES: Cc1csc(=O)n1CC(=O)OC(C)C(=O)Nc1ccc(N(C)C)cc1 (stereo not drawn)
- IC50 [13]: 51.4 µM (active)

SMILES: CC(/C=C/c1ccccc1)=N/NC(=O)CNC(=O)c1ccc2c(c1)OCO2
- IC50 [3]: > 47.1 µM (inactive)
- EC50 [4]: > 53 µM (inactive)
- AC50 [19]: 0.0501 µM (inconclusive)

SMILES: COc1ccc(C(=O)N/N=C(\Cc2ncc[nH]2)c2ccccc2)cc1
- EC50 [5]: 7.31 µM (active)
- EC50 [6]: > 38 µM (not active)
- EC50 [7]: 1.46 µM (active)
- EC50 [8]: 7.77 µM (active)

SMILES: CCN(/C=N/C1=NN(c2cccc(C(F)(F)F)c2)CC1)CC
- IC50 [13]: 32.9 µM (active)

SMILES: COc1cc(/C=N/NC(=O)C(C)Nc2nnc(O)nc2O)ccc1O (stereo not drawn)
- IC50 [13]: 57.2 µM (active)
